Measurements taken from ChEMBL document CHEMBL1139273, “Aryl aminopyrazole benzamides as oral non-steroidal selective glucocorticoid receptor agonists” (Bioorg Med Chem Lett, 2009).

Legend:
Glucocorticoid receptor [1] = biological target: T1, Glucocorticoid receptor (Homo sapiens, UniProt P04150)
T1 sequence (P04150 whole entry): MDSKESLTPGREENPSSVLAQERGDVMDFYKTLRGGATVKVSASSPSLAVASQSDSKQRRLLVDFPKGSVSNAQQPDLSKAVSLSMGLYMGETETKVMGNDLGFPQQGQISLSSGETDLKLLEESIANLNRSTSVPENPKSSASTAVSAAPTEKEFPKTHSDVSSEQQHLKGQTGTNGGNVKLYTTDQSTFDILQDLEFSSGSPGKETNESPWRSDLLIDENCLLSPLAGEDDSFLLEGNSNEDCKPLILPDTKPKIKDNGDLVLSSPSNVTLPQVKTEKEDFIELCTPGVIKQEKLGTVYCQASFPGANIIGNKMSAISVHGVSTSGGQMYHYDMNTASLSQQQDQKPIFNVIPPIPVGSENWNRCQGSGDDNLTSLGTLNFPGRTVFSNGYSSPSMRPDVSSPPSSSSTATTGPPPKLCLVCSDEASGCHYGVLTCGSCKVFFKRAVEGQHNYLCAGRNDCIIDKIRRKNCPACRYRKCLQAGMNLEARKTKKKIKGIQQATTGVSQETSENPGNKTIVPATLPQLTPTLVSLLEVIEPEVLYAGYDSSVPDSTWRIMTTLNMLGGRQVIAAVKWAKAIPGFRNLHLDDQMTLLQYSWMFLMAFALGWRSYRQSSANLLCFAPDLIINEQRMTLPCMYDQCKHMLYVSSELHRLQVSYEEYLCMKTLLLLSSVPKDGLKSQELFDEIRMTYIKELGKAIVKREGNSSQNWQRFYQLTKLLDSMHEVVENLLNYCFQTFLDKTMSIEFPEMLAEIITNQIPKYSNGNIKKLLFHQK
Description: Displacement of fluorescent labelled Dexamethasone from glucocorticoid receptor

[2] = Protein binding in human plasma by ultrafiltration; format: ADME, cell-free; conditions: read-out: PPB (converted)
[3] = Volume of distribution at steady state in Sprague-Dawley rat at 1 mg/kg, iv and 1 mg/kg, po; format: ADME, organism-based; conditions: in vivo, read-out: Vdss
Glucocorticoid receptor [4] = biological target: T1, Glucocorticoid receptor; remark: listed apart in the source
Description: Agonist activity at human glucocorticoid receptor in human A549 cells assessed as transcriptional activity by MMTV luciferase reporter gene assay

A549 = test: Inhibition of TNF-induced NFkappaB activation in human A549 cells after 15 hrs relative to Dexamethasone; format: cell-based; parameters: scale not given: the % may be the effect or the level left
Cytochrome P450 1A2 = biological target: T2, Cytochrome P450 1A2 (Homo sapiens, UniProt P05177); test: Inhibition of CYP1A2; format: ADME
T2 sequence (P05177 whole entry): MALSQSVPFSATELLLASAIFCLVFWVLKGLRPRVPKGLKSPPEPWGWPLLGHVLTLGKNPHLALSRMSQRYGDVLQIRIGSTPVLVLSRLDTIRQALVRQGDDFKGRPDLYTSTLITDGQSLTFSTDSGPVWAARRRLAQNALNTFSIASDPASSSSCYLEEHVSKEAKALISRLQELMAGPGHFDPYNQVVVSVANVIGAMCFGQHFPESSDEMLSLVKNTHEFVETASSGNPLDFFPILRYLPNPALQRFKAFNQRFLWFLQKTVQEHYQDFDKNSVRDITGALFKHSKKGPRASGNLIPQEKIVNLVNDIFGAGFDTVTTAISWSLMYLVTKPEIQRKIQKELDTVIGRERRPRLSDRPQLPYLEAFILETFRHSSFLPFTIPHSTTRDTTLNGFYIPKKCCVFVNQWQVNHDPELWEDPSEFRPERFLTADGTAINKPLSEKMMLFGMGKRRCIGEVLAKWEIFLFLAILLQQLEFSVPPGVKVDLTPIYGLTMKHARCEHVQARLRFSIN

[5] = Clearance in Sprague-Dawley rat at 1 mg/kg, iv and 1 mg/kg, po; format: ADME, organism-based; conditions: in vivo
Cytochrome P450 2C9 = Cytochrome P450 2C9 (Homo sapiens, UniProt P11712); test: Inhibition of CYP2C9; format: ADME
Chain of Cytochrome P450 2C9 (P11712 whole entry): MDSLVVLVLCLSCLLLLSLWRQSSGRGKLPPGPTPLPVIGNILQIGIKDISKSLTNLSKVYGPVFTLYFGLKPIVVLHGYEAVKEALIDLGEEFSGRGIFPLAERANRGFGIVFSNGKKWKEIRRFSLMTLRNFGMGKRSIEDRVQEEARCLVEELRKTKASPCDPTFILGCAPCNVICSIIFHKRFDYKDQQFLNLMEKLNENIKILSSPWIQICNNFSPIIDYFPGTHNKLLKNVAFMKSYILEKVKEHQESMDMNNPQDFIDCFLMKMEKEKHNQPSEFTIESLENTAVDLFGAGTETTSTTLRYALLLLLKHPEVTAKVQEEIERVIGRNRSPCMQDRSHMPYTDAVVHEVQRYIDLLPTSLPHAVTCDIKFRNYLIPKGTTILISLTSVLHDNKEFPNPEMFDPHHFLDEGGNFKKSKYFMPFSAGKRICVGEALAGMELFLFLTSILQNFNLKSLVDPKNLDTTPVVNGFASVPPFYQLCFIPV

[6] = Inhibition of TNF-induced NF-kappaB activation in human A549 cells after 15 hrs; conditions: Homo sapiens, A549, 15 h, read-out: pIC50 (converted)
Albumin = Albumin (Homo sapiens, UniProt P02768); test: Binding affinity to human serum albumin by fast gradient HPLC; format: ADME; conditions: isolated protein
Chain of Albumin (P02768 whole entry): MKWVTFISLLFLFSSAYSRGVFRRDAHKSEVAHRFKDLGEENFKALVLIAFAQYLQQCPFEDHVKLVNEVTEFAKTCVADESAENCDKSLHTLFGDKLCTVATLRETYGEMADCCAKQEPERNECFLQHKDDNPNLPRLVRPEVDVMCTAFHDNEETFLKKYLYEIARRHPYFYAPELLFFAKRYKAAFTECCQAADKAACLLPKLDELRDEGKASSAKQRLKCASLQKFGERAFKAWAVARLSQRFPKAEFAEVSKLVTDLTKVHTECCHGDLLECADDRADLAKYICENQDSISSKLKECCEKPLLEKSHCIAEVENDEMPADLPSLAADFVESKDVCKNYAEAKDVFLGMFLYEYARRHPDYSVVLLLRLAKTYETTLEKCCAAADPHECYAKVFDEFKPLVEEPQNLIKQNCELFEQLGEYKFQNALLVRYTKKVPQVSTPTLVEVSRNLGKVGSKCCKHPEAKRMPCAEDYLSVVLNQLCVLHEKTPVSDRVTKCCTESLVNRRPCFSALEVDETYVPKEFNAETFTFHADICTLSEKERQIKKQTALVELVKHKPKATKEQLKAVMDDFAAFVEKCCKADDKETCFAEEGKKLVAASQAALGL

Cytochrome P450 2C19 = Cytochrome P450 2C19 (Homo sapiens, UniProt P33261); test: Inhibition of CYP2C19; format: ADME
Chain of Cytochrome P450 2C19 (P33261 whole entry): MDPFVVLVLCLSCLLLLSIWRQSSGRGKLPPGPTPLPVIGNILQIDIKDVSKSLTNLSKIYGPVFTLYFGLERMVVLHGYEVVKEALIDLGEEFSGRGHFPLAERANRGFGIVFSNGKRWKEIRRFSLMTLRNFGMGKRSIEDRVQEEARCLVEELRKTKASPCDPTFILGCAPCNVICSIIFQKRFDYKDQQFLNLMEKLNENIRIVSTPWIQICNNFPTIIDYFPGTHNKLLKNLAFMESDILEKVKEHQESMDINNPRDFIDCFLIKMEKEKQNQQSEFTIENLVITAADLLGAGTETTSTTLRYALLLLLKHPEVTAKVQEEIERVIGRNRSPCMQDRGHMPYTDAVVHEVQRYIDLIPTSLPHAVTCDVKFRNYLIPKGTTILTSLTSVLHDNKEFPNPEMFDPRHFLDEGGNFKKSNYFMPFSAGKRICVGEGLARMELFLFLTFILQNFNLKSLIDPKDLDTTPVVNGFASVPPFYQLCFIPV

Cytochrome P450 2D6 = Cytochrome P450 2D6 (Homo sapiens, UniProt P10635); test: Inhibition of CYP2D6; format: ADME
Chain of Cytochrome P450 2D6 (P10635 whole entry): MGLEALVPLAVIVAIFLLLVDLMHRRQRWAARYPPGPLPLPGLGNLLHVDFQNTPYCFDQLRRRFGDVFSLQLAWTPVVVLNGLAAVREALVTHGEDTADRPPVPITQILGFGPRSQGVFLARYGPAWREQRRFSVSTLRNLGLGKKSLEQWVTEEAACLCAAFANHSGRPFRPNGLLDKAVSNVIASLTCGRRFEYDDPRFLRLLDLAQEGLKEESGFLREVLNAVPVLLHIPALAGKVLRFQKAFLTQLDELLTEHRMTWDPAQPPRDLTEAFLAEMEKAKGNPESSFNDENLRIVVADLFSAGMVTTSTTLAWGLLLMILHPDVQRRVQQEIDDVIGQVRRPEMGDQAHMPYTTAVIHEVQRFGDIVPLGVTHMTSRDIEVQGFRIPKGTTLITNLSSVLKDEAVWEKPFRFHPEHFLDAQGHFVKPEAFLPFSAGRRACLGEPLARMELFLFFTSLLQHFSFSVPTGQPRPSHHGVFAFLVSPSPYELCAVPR

[7] = Oral bioavailability in Sprague-Dawley rat at 1 mg/kg; format: ADME, organism-based; conditions: in vivo
Cytochrome P450 3A4 = Cytochrome P450 3A4 (Homo sapiens, UniProt P08684)
Chain of Cytochrome P450 3A4 (P08684 whole entry): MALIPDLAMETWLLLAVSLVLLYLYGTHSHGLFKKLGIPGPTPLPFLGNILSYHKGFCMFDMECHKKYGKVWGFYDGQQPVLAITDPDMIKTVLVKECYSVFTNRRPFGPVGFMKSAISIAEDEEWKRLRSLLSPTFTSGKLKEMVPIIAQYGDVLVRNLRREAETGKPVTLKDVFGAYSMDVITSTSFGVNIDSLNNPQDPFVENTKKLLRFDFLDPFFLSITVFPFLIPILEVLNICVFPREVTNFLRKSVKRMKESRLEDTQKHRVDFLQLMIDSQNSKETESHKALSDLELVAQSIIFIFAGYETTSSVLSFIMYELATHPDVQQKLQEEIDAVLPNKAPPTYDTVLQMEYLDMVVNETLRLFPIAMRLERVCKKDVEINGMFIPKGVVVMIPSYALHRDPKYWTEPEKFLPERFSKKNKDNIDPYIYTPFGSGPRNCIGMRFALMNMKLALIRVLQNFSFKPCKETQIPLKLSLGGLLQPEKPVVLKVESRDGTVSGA

Structure (SMILES)	IC50 (Glucocorticoid receptor [1]) [µM]	fraction unbound [2]	Vd [3] [L/kg]	EC50 (Glucocorticoid receptor [4]) [µM]	Activity (A549) [%]	IC50 (Cytochrome P450 1A2) [µM]	clearance [5] [mL/min/kg]	IC50 (Cytochrome P450 2C9) [µM]	IC50 [6] [µM]	Activity (Albumin) [%]	IC50 (Cytochrome P450 2C19) [µM]	IC50 (Cytochrome P450 2D6) [µM]	bioavailability [7] [%]	IC50 (Cytochrome P450 3A4) [µM]
Nc1c(C(=O)NCC(O)(CN(CCO)C(=O)c2c(F)cccc2F)C(F)(F)F)cnn1-c1ccc(F)cc1 (stereo not drawn)	0.0158	0.32	0.9	0.0501	94	100	8	13	0.02	81	40	100	44	76
CCN(CC(O)(CNC(=O)c1cnn(-c2ccc(F)cc2)c1N)C(F)(F)F)C(=O)c1c(F)cccc1F (stereo not drawn)	0.00794	0.03	2.8	0.00794	104	100	27	8	0.00251	93	18	74	36	2
